SMILES strings stand for the structures.

The test system of series [1] is Dengue 2 virus. The series can be described thus: RT and real-time quantitative PCR of Dengue RNA in infected BHK-21 cells treated with ribavirin. The class given is cell-based. Particulars: m.o.i 0.00125, day 3 post-infection. As to the method:
RT-PCR and real-time quantitative PCR of Dengue nucleic acids: Total RNA was prepared from infected cells using the TRizol® Reagent (Invitrogen Life Technologies, Carlsbad, Calif.) according to manufacturer's instructions. The RNA obtained was quantified by spectrophotometry, and their integrity analyzed by gel electrophoresis. The RT reaction was performed at 42° C. on 2-5 ug of total RNA as described (21) using 100 U of M-MLV (Promega Corporation, Madison, Wis.) with either 12.5 pmoles of random hexamers (Promega Corporation, Madison, Wis.) or DNS-1 (5′-[…]-3′ (SEQ ID NO: 5)) in a total volume of 10 ul. […] The calculated ΔG of the hairpin loop at the RT step was −2.9 kcal/mol, with a Tm (melting temperature) of 62° C. […] However, with the conditions used for PCR, the ΔG and the Tm of the hairpin loop were −0.4 kcal/mol and 64° C. respectively.
All real-time quantitative PCR was performed on the iCycler jQ™ Multi-Color Real Time PCR Detection System (Bio-Rad, Hercules, Calif.). The threshold cycles (Ct) were calculated using the Optical interface v2.3B (Bio-Rad, Hercules, Calif.). […] Unless stated otherwise, all real-time quantitative PCR was performed with 40 cycles of 30 s denaturation at 95° C., 30 s annealing at 60° C. and 30 s extension at 72° C. […]

A further series concerns BHK-21 cells. The series can be described thus: Cytotoxicity by LDH release (CytoTox 96 Non-Radioactive Cytotoxicity Assay). The class given is cell-based, hamster. To be noted: highest concentration used, 10 ug/ml, day 3 post-infection. As to the method: (§1) Dengue virus infection and titration: Monolayers of C6/36 or BHK-21 cells were grown in 24 well plates and infected the next day with Dengue 2 virus. After adsorption for 1 hour, unbound viruses were removed by aspiration, the cells rinsed with PBS and grown in their respective maintenance media. Cells without Dengue virus infection, or inoculated with heat-inactivated virus (30 minutes at 56° C.), were used as controls. In some experiments, BHK-21 cells were infected with Dengue 2 virus and grown in the absence or presence of varying concentrations of ribavirin (1-fl-D-ribofuranosyl-1,2,4-triazole-3-carboximide; Sigma, St. Louis, Mo.) to inhibit viral transcription. Cytotoxicity of the cells due to ribavirin treatment was determined by CytoTox 96® Non-Radioactive Cytotoxicity Assay (Promega Corporation, Madison, Wis.). The titer of Dengue 2 virus was determined by plaque assay with BHK-21 cells. […] At day 6 post-infection, cells were fixed and stained with 1% crystal violet-4% formalin solution in phosphate-buffered saline (PBS), and the plaque numbers counted. […]
(§2) To correlate the levels of replicating virus and the effects of ribavirin, BHK-21 cells were initially infected with Dengue virus at an m.o.i of 0.00125, in the absence or in the presence of varying concentrations of ribavirin. […] The results further validated the utility of this method to quantify the replicative form of the virus.
(In general: LDH leaks from cells whose membrane has failed.)

Series [2] deals with RNA viruses including Dengue. To be noted: Koff et al., 1982; Sidwell, 1979; cited from earlier work.
Series [3] concerns Dengue 2 virus. In words: Plaque assay of supernatants from Dengue-infected BHK-21 cells grown with ribavirin. The class given is cell-based. To be noted: m.o.i 0.00125, supernatants harvested day 3 post-infection, varying concentrations of ribavirin. How it is done: as §1, §2

`NC(=O)c1ncn([C@@H]2O[C@H](CO)[C@@H](O)[C@H]2O)n1` [Ribavirin, 1-fl-D-ribofuranosyl-1,2,4-triazole-3-carboximide]: the “replicative, negative Dengue RNA strand” value in the series on Dengue 2 virus [1] (RT with DNS-1, increasing concentrations of ribavirin) was “concomitant decrease with increasing concentrations of ribavirin”. The “viral transcripts, random hexamer-primed RT, primers to the envelope region” value in the series with Dengue 2 virus [1] (varying concentrations of ribavirin) is on record as “corresponding decrease in viral transcripts”. In addition, the “cell death (LDH release)” value in the series with BHK-21 cells is reported as “did not induce detectable cell death”. In addition, the “replication of RNA viruses” value in series [2] is “known to inhibit the replication of many RNA viruses including Dengue”. The “viral replication (relative PFU)” value in the series with Dengue 2 virus [3] is “inhibited viral replication in a concentration dependent manner”.
